Test results reported in US5330992A, “1-cyclopropyl-4-pyridyl-quinolinones” (priority 1992, dated 1994).

Experiments:
[1] = test system: P388 murine leukemia cells; assay: Malignant cell cytotoxicity, one-hour exposure (clonogenic survival in soft agar); type: cell-based; settings: Mus musculus, 1 hr exposure, read-out: IC50 P388 1 hr. exp.
Description: Examples of compound I having Topo II activity were tested for malignant cell cytotoxicity. In vitro cytotoxicity was assayed by determining cell survival following exposure of P388 murine leukemia cells to a range of test compound concentrations. Cytotoxicity was quantitated following either a one-hour exposure or continuous exposure of P388 cells to test compound.
Cytotoxicity following a one-hour exposure of cells to drug was assayed by quantitating clonogenic cell survival according to a published procedure [Freshney, R. L. (1987) Culture of Animal Cells. A Manual of Basic Technique. Wiley-Liss Inc., New York, N.Y., pp. 140-144]. Briefly, following drug exposure cells were plated in soft agar and incubated (37°, 5% CO2) for 7-10 days during which time viable cells form visible colonies. Cytotoxicity following continuous exposure of cells to test compound was assayed by quantitating total P388 cells on a Coultier Counter following a 48-hour co-incubation of test compound with cells. P388 cells were maintained in log phase throughout the duration of cytotoxicity assays.
The percentage of cells surviving relative to an untreated control was graphed as a function of increasing drug concentration.

[2] = In vivo antitumor assay, B16(ip); design: species or system mouse; settings: mouse, in vivo, drug route ip, qd 1,5,9
Excerpt: (§1) Mice: Inbred: C3H/He and NCR-nu; and Hybrids: B6D2Fl (C57BL/6 females X DBA/2 males, CD2Fl (Balb/c females X DBS/2 males) and B6x C3fl (C57BL/6 x C3H) were bred at Wayne State University from strained obtained from the Frederick Cancer Research Facility, Frederick, Md. or purchased from commercial suppliers.
(§2) Tumors: Murine Tumor: P388 and an adriamycin-resistant (ADR) subline P388/ADR leukemia and the following transplantable solid tumors of mice were used for in Vivo testing: B16 melanoma (B16), pancreatic ductal adenocarcinoma No. 03 (Panc 03), colon adenocarcinoma No. 38 (colo 38), mammary ductal adenocarcinoma No. 16/C (Mam16) and an adriamycin-resistantsubline Mam16C/ADR. Human tumor: A single human tumor, mammary carcinoma MX-1 (MX1) was used for in vivo testing. All tumors are in the Developmental Therapeutics Program frozen tumor respository, maintained by the Biological Testing Branch, Frederick Md. Each has a detailed description, code identification number, and list of references at the National Tumor Repository. Murine tumors were maintained in the mouse strain of origin and were transplanted in the appropriate F1 hydrid (or the strain of origin) for therapy trials. Human mammary carcinoma MX-1 MX1) was maintained as a subcutaneous implant in either athymic Swiss (Cr: NIH(S)-nu) or athymic random bred (NCR-nu) mice and transplanted in NCR-nu for therapy trials.
(§3) For P388 and P388/ADR leukemia studies the tumor cells were implanted either IP or intravenously (IV) on day zero and treatment was started on day one. For B16 melanoma (B16) studies, the tumor cells were implanted IP on day zero and treatment was started on day one. Tirered controls were also included to facilitate the calculation of tumor cell kill. For mammary carcinoma MX-1 studies, tumors were implanted with 1) subcutaneously (sc) (14-mg fragment of s.c. donor tumor) in the axillary region or 2) under the subrenal capsule (src) (10×10×10 ocular micrometer unit fragment of s.c. donor tumor). Treatment started on the day after subrenal capsule tumor implant or when the subcutaneous tumor implant had reached 100-700 mg.
(§4) Quantitative end points used assess antitumor activity included % Increased Life Span (% ILS), Tumor Cell Kill (Log10 kill), and Tumor Growth Inhibition (T/C). Long Term Survivors (45 or 60 day) were excluded from calculations of % ILS and Tumor Cell Kill.
(§5) Endpoints were calculated as follows: % ILS [formula] where Dt is the median day of death for treated and Dc is the median day of death for control groups. A % ILS ≥20 or ≥25 for P388 and B16 intraperitoneal models, respectively, is indicative of a significant degree of antitumor activity. A % ILS ≥75 or ≥50 for P388 and B16 intraperitoneal models, respectively, is indicative of a high degree of antitumor activity and is the level used by National Cancer Institute to justify further development if other requirements are met (termed DN-2 level activity). Minimum quantitative activity limits for additional P388 models (e.g. P388/ADR and P388, IJV) have not been defined. However, the activity limits specified for the intraperitoneal models may be applied as in the majority of instances these models are found to be signficantly […] challenging.
(§6) The log10 cell kill was calculated from the following formula: [formula] where T-C is the tumor difference in the median day of death between the treated (T) and the control (C) groups and Td is the tumor doubling time (in days), the latter estimated from the best fit straight line from a log-linear growth plot of the control-group tumors in exponential growth. The conversion of the T-C values to log10 cell kill is possible because the Td for tumors regrowing post-treatment approximated the Td values of the tumors in untreated control mice.

[3] = test system: B16 melanoma (B16); assay: In vivo antitumor assay, B16(ip); design: species or system mouse; settings: drug route ip; for ILS %: qd 1,5,9, increased life span; for LOG KILL: qd 1,5,9, log10 cell kill
Excerpt: as §1, §2, §3, §4, §5, §6

[4] = In vivo antitumor assay, MX1(src); design: species or system human tumor in athymic NCR-nu mice; settings: mouse, in vivo, drug route ip, qd 1,5,9
Excerpt: as §1, §2, §3, §4
(§7) Tumors were measured with a caliper once or twice weekly (as needed) until either tumors exceeded 1600 mg or cure was assured. Tumor weights were estimated from two-dimensional measurements: Tumor Weight (mg)=(a×b^2) / 2, where a and b are the tumor length and width (nun) respectively. Measurements were carried out simultaneously in both treatment and control groups. When the control group tumors reached approximately 750-1500 mg in size (median of group), the median tumor weight of each group was determined (including zeros). The T/C value in percent is an indiation of antitumor effectiveness. The % T/C was calculated from the following formula for solid murine tumor models: [formula] where T and C are median tumor weights of the treatment and control groups, respectively. A T/C equal to or less than 42% is considered significant antitumor activity. A T/C value <10% is indicative of a high degree of antitumor activity and is the level used by National Cancer Institute to justify further development if other requirements are met (termed DN-2 level activity). By convention the T/C value for the mammary carcinoma MX-1 models is calculated by the parameter of change in tumor weight. The % T/C was calculated from the following formula for MX-1 models [formula] where ΔT and ΔC are the change in mean tumor weight of the test and control groups, respectively, and T (initial) is the initial mean tumor weight of the test group. […] A reproducible % T/C ≤10 is considered significant activity.

[5] = test system: human mammary carcinoma MX-1 (MX1); assay: In vivo antitumor assay, MX1(src); design: species or system human tumor in athymic NCR-nu mice; settings: drug route ip, qd 1,5,9, change in mean tumor weight
Excerpt: as §1, §2, §3, §4, §7

[6] = In vivo antitumor assay, P388(ip); settings: mouse, in vivo
Excerpt: as §1, §2, §3, §4, §5, §6

[7] = test system: P388 leukemia; assay: In vivo antitumor assay, P388(ip); settings: P388(ip), qd 1,5,9; for ILS %: increased life span; for LOG KILL: log10 cell kill
Excerpt: as §1, §2, §3, §4, §5, §6

[8] = P388(ip), drug route ip, qd 1,5,9
[9] = P388(ip), drug route iv, qd 1,5,9

| Compound | IC50 [1] | MTD [2] | ILS % [3] | LOG KILL [3] | MTD [4] | T/C % [5] | MTD [6, 8] | MTD [6, 9] | ILS % ([7]; drug route ip) | LOG KILL ([7]; drug route ip) | ILS % ([7]; drug route iv) | LOG KILL ([7]; drug route iv) | MTD ([6]; iv) |
| --- | --- | --- | --- | --- | --- | --- | --- | --- | --- | --- | --- | --- | --- |
| Cc1cc(-c2c(F)cc3c(=O)c(Cc4c(O)cccc4O)cn(C4CC4)c3c2F)cc(C)n1 [Example 26, 1-Cyclopropyl-6,8-difluoro-7-[2,6-dimethyl-4-pyridinyl]-3-[2,6-dihydroxyphenylmethyl]-1,4-dihydroquinoline-4-one] | 250 nM | 8.1 mg/kg | 94% | 2.2 | 8.1 mg/kg | 20% | 12 mg/kg | 15 mg/kg | 100% | 7.3 | 80% | 5.8 |  |
| Cc1cc(-c2c(F)cc3c(=O)c(Cc4ccccc4O)cn(C4CC4)c3c2F)cc(C)n1 [Example 30] | 670 nM | 304 mg/kg | 88% | 2.0 | 304 mg/kg | 6% | 456 mg/kg | 120 mg/kg | 120% | 8.8 | 20% | 1.5 |  |
| Cc1cc(-c2c(F)cc3c(=O)c(Cc4ccc(O)cc4O)cn(C4CC4)c3c2F)cc(C)n1 [Example 33] | 210 nM | 19 mg/kg | 94% | 2.2 | 19 mg/kg | 8% | 19 mg/kg |  | 50% | 3.6 | 50% | 3.6 | 37 mg/kg |
